Target: isomerase (Mus musculus (Mouse), UniProt Q91ZQ5)
Test: In vivo murine isomerase assay (recovery of 11-cis-retinal after photobleaching)
Set-up: species or system CD-1 (albino) male mice
Settings: for inhibition at 10 mg/kg / inhibition at 1 mg/kg / inhibition at 5 mg/kg / ED50: mouse; for inhibition at 10 mg/kg / inhibition at 1 mg/kg / inhibition at 5 mg/kg: po, negative numbers leveled to 0%; for inhibition at 10 mg/kg: 10 mg/kg oral gavage; for inhibition at 1 mg/kg: 1 mg/Kg oral gavage; for inhibition at 5 mg/kg: 5 mg/kg oral gavage; for ED50: estimated, oral gavage, read-out: ED50 (dose of compound that gives 50% inhibition of 11-cis retinal (oxime) recovery)
Description: The capability of styrenyl derivatives to inhibit isomerase is determined by an in vivo murine isomerase assay. Brief exposure of the eye to intense light (“photobleaching” of the visual pigment or simply “bleaching”) is known to photo-isomerize almost all 11-cis-retinal in the retina. The recovery of 11-cis-retinal after bleaching can be used to estimate the activity of isomerase in vivo. Procedures were performed essentially as described by Golczak et al., Proc. Natl. Acad. Sci. USA 102:8162-67 (2005). See also Deigner et al., Science, 244: 968-71 (1989); Gollapalli et al., Biochim Biophys Acta. 1651: 93-101 (2003); Parish, et al., Proc. Natl. Acad. Sci. USA, 14609-13 (1998); Radu, et al., Proc Natl Acad Sci USA 101: 5928-33 (2004). […] Mice were gavaged with styrenyl derivative compounds, Compound 1 or Compound 25. Compound B was included as a positive control, and Compound A with low activity was also included. After 1-72 hours in the dark, the mice were exposed to photobleaching of 3,000 lux of white light for 10 minutes. The mice were allowed to recover 2 hours in the dark. The animals were then sacrificed by carbon dioxide inhalation. Retinoids were extracted from the eye and the regeneration of 11-cis-retinal was assessed at various time intervals. All steps were performed in darkness with minimal redlight illumination (low light darkroom lights and […] flashlights for spot illumination as needed) (see, e.g., Maeda et al., J. Neurochem 85:944-956, 2003; Van Hooser et al., J Biol Chem 277:19173-82, 2002). After the mice were sacrificed, the eyes were immediately removed and placed in liquid nitrogen. The eyes were then homogenized in a glass/glass homogenizer (Kontes Glass Co., homogenizer & pestle 21) containing 1 ml retinoid analysis buffer (50 mM MOPS, 10 mM NH2OH, 50% EtOH, pH 7.0 (stock buffer was stored in absence of ethanol)). The eyes were homogenized until no visible tissue remained (approximately 3 minutes). The samples were incubated 20 minutes at room temperature (including homogenizing) and then placed on ice. One ml cold EtOH was added to the homogenate to rinse the pestle, and the homogenate mixture was transferred to 7 ml glass screwtop tubes on ice. The homogenizer was rinsed with 7 ml hexane, which was added to the 7 ml tubes on ice. The homogenate was mixed by vortexing at high speed for 1 minute. The phases were separated by centrifugation (5 minutes at 4000 rpm, 4° C.). The upper phase was collected and transferred to a clean glass test tube, taking care to avoid disturbing the interface by leaving approximately 0.2 ml of upper phase in the tube. The tubes with the collected upper phase were placed in a heating block at 25° C. and dried under a stream of Argon ( 30 minutes). The lower phase was again extracted by adding 4 ml hexane, vortexing, and separating the phases by centrifugation. The upper phase was collected as described above and pooled into the drying tubes. The dried samples were solubilized in 300 μl Hexane (Fisher Optima grade) and vortexed lightly. The samples were transferred to clean 300 μl glass inserts in HPLC vials using glass pipette and the vials were crimped shut tightly. […] Part #235341). […] The area under the curve for 11-cis retinal oxime was calculated by Agilent Chemstation software and was recorded manually. Data processing was performed using Prizm software. Positive control mice (no compound administered) were sacrificed fully dark-adapted and the eye retinoids analyzed. Light (bleached) control mice (no compound administered) were sacrificed and retinoids isolated and analyzed immediately after light treatment.

isomerase, sequence (Q91ZQ5 whole entry): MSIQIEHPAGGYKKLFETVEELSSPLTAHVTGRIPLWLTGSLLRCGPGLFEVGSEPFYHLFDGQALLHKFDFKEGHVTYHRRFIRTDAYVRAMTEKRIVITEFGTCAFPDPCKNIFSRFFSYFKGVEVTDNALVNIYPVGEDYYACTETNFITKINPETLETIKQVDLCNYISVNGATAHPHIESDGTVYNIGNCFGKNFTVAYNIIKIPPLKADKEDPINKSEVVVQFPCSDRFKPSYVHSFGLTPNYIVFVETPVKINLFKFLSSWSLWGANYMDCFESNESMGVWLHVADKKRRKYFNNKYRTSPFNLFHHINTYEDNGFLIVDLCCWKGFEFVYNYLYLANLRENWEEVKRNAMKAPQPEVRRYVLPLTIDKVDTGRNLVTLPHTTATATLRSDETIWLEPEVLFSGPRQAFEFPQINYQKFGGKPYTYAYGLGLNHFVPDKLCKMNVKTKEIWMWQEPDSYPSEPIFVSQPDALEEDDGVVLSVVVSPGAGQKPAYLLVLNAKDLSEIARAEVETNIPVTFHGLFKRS

Row | SMILES | inhibition at 10 mg/kg (4 h) [%] | inhibition at 5 mg/kg (4 h) [%] | inhibition at 5 mg/kg (24 h) [%] | inhibition at 1 mg/kg (6 h) [%] | inhibition at 1 mg/kg (24 h) [%] | also measured
1 | COc1ccccc1C=Cc1cccc(CCCN)c1 (mixture of isomers) [Example 41] | 76 |  |  |  |  | 
2 | CC1=C(/C=C/c2cccc(C(F)CCN)c2)C(C)(C)CCC1 (stereo not shown) [Example 55, (E)-3-fluoro-3-(3-(2-(2,6,6-trimethylcyclohex-1-enyl)vinyl)phenyl)propan-1-amine] |  | 75 | 89 |  |  | inhibition at 1 mg/kg (2 h): 0%
3 | CCCCC/C=C/c1cccc(CCCN)c1 [Example 24, (E)-3-(3-(hept-1-enyl)phenyl)propan-1-amine] | 16 |  |  |  |  | 
4 | CC1=C(/C=C/c2cccc(C(C)CCN)c2)C(C)(C)CCC1 (stereo not shown) [Example 27, (E)-3-(3-(2-(2,6,6-trimethylcyclohex-1-enyl)vinyl)phenyl)butan-1-amine] | 11 |  |  |  |  | 
5 | CC1=C(/C=C/c2cccc(C#CCN)c2)C(C)(C)CCC1 [Example 68, (E)-3-(3-(2-(2,6,6-trimethylcyclohex-1-enyl)vinyl)phenyl)prop-2-yn-1-amine] | 75 |  |  |  |  | 
6 | CC1=C(/C=C/c2cccc(C(O)C(C)CN)c2)C(C)(C)CCC1 (stereo not drawn) [Example 59, (E)-(syn/anti)-3-amino-2-methyl-1-(3-(2-(2,6,6-trimethylcyclohex-1-enyl)vinyl)phenyl)propan-1-ol] |  | 21 | 7 | 1 |  | inhibition at 1 mg/kg (4 h): 0%
7 | Cc1cc(C)cc(C=Cc2cccc(CCCN)c2)c1 (mixture of isomers) [Example 40, (E/Z)-4-(3-(3,5-dimethylstyryl)phenyl)propan-1-amine] | 2 |  |  |  |  | 
8 | NCCCc1cccc(/C=C/c2c(C(F)(F)F)cccc2C(F)(F)F)c1 [Example 49, (E)-3-(3-(2,6-bis(trifluoromethyl)styryl)phenyl)propan-1-amine] |  | 60 | 84 |  | 0 | inhibition at 1 mg/kg (4 h): 10%
9 | CC1=C(/C=C/c2cccc(CCCN)c2)C(C)(C)CCC1 [Example 21, (E)-3-(3-(2-(2,6,6-trimethylcyclohex-1-enyl)vinyl)phenyl)propan-1-amine] | 80 |  |  |  |  | 
10 | CCc1cccc(C)c1C=Cc1cccc(CCCN)c1 (mixture of isomers) [Example 32, (E/Z)-3-(3-(2-ethyl-6-methylstyryl)phenyl)propan-1-amine] | 52 |  |  |  |  | 
11 | CC(C)(O)/C=C/c1cccc(CCCN)c1 [Example 79, (E)-4-(3-(3-aminopropyl)phenyl)-2-methylbut-3-en-2-ol] |  | 24 | 0 |  |  | 
12 | CC1=C(/C=C/c2cccc(C(O)CCN)c2)C(C)(C)CCC1 (stereo not shown) [Compound 25, (E)-3-amino-1-(3-(2-(2,6,6-trimethylcyclohex-1-enyl)vinyl)phenyl)propan-1-ol] | 100 |  |  |  | 96 | inhibition at 1 mg/kg (4 h): 89%; ED50 (mice): 0.44 mg/kg
13 | NCCC(O)c1cccc(/C=C/C2(O)CCCCC2)c1 (stereo not shown) [Example 111, (E)-1-(3-(3-amino-1-hydroxypropyl)styryl)cyclohexanol] |  | 90 | 0 |  |  | 
14 | Cc1cccc(C)c1/C=C/c1cccc(CCCN)c1 [Example 1, (E)-3-(3-(2,6-dimethylstyryl)phenyl)propan-1-amine] | 80 | 57 | 58 | 0 | 0 | time of maximum inhibitory effect after gavage (isomerase inhibitory activity over time, mice, FIG. 1): ~6 h; inhibition at 1 mg/kg (2 h): 0%; ED50 (mice): 4.3 mg/kg
15 | CC1=C(/C=C/c2cccc(CC(C)CN)c2)C(C)(C)CCC1 (stereo not shown) [Example 26, (E)-2-methyl-3-(3-(2-(2,6,6-trimethylcyclohex-1-enyl)vinyl)phenyl)propan-1-amine] | 80 |  |  |  |  | 
16 | NCCCc1cccc(/C=C/C2CCCCC2)c1 [Example 22, (E)-3-(3-(2-cyclohexylvinyl)phenyl)propan-1-amine] | 0 |  |  |  |  | 
17 | CNCCCc1cccc(/C=C/c2c(C)cccc2C)c1 [Example 7, (E)-3-(3-(2,6-dimethylstyryl)phenyl)-N-methylpropan-1-amine] | 36 |  |  |  |  | inhibition at 10 mg/kg (24 h): 8%
18 | NCCCc1cccc(/C=C/c2c(Cl)cccc2Cl)c1 [Example 43, (E)-3-(3-(2,6-dichlorostyryl)phenyl)propan-1-amine] | 94 | 79 | 54 | 7 | 16 | inhibition at 1 mg/kg (2 h): 0%
19 | NC[C@@H](O)Cc1cccc(/C=C/c2c(Cl)cccc2Cl)c1 [Example 75, (S,E)-1-amino-3-(3-(2,6-dichlorostyryl)phenyl)propan-2-ol] |  |  | 85 | 20 | 13 | inhibition at 1 mg/kg (2 h): 19%; inhibition at 5 mg/kg (2 h): 81%; inhibition at 5 mg/kg (6 h): 90%
20 | NC[C@H](O)Cc1cccc(/C=C/c2c(Cl)cccc2Cl)c1 [Example 74, (R,E)-1-amino-3-(3-(2,6-dichlorostyryl)phenyl)propan-2-ol] |  |  | 56 | 40 | 9 | inhibition at 1 mg/kg (2 h): 19%; inhibition at 5 mg/kg (2 h): 83%; inhibition at 5 mg/kg (6 h): 91%
21 | CC1=C(/C=C/c2cccc(C(N)CCN)c2)C(C)(C)CCC1 (stereo not shown) [Example 61, (E)-1-(3-(2-(2,6,6-trimethylcyclohex-1-enyl)vinyl)phenyl)propane-1,3-diamine] |  | 12 | 0 | 0 |  | inhibition at 1 mg/kg (4 h): 0%
22 | CCC/C=C/c1cccc(CCCN)c1 [Example 23, (E)-3-(3-(pent-1-enyl)phenyl)propan-1-amine] | 0 |  |  |  |  | 
23 | CCCC(O)(/C=C/c1cccc(CCCN)c1)CCC [Example 83, (E)-4-(3-(3-aminopropyl)styryl)heptan-4-ol] |  | 97 | 3 |  | 0 | inhibition at 1 mg/kg (4 h): 55%
24 | CC1=C(/C=C/c2cccc(C(=O)CCN)c2)C(C)(C)CCC1 [Example 56, (E)-3-amino-1-(3-(2-(2,6,6-trimethylcyclohex-1-enyl)vinyl)phenyl)propan-1-one] |  |  |  | 75 | 77 | inhibition at 1 mg/kg (2 h): 26%
25 | CC1=C(/C=C/c2cccc(OCCN)c2)C(C)(C)CCC1 [Example 31, (E)-2-(3-(2-(2,6,6-trimethylcyclohex-1-enyl)vinyl)phenoxy)ethanamine] |  | 53 | 46 | 2 | 0 | inhibition at 1 mg/kg (2 h): 0%

Source: patent US10201545B2, “Styrenyl derivative compounds for treating ophthalmic diseases and disorders” (Acucela Inc., priority 2007, dated 2019)
